Assay results published in patent US20240182941A1, “XYLOSYLATED STEVIOL GLYCOSIDES AND ENZYMATIC METHODS FOR PRODUCTION” (CARGILL, INCORPORATED, priority 2021, published 2024).

System: SEQ ID NO:1
Test: Glycosylation of Reb F, Reb G and Dulcoside A using SEQ ID NO:1 and activated sugars
Type: biochemical, Oryza sativa Japonica Group
Details: for Rhamnosylation using UDP-rhamnose compared with glucosylation and xylosylation / glucosylation and xylosylation plateauing after: -19C(O)-β-Glc residue; for glucosylation and xylosylation plateauing after: UDP-glucose and UDP-xylose
Experimental: Bioconversion reaction was carried out in a total of 100 uL sealed vials containing the Tris buffer, 0.1 μmoles of SG acceptor, 0.2 μmoles of activated sugar donor, 1 μmoles of sucrose and 2 ug protein of the enzymes. To each vial, buffer, sucrose, UDP-sugar donor, and SG acceptor were added in that order before finally the enzymes were added. For each SG donor, a control was included to contain the same amounts of sucrose and enzymes without UDP-sugar donors. After hand mixing, the vials were placed in a temperature-controlled shaker set at 30C and 100 rpm in rotating motion for 96 hours (4 days).
After 4 days of reaction, 0.9 mL of 80% acetonitrile was added to each vial and the resulting samples were analyzed in LC/MS. Xylose modification of the -19C(O)-β-Glc residue was confirmed.
The ability of SEQ ID NO:1 to glycosylate the -19C(O)-β-Glc residue of RebF, RebG, and Dulcoside A with different activated sugars used at different concentrations was examined, with the reaction products formed being measured over the course of the reaction.
UDP-glucose, UDP-xylose, and UDP-rhamnose di-sodium salts were used, and the reagents and reaction conditions were as described in Example 1.

C=C1C[C@@]23CC[C@H]4[C@@](C)(CCC[C@@]4(C)C(=O)O[C@@H]4O[C@H](CO)[C@@H](O)[C@H](O)[C@H]4O)[C@@H]2CC[C@]1(O[C@@H]1O[C@H](CO)[C@@H](O)[C@H](O)[C@H]1O[C@@H]1O[C@@H](C)[C@H](O)[C@@H](O)[C@H]1O)C3 [Dulcoside A, dulcoside A]
Rhamnosylation using UDP-rhamnose compared with glucosylation and xylosylation: significantly lower
% Dul A bioconversion (UDP-Glucose, 0 hours): 0%
% Dul A bioconversion (UDP-Glucose, 15 hours): 77.162%
% Dul A bioconversion (UDP-Glucose, 48 hours): 75.215%
% Dul A bioconversion (UDP-Glucose, 96 hours): 73.71%
% Dul A bioconversion (UDP-Rhamnose, 0 hours): 0%
% Dul A bioconversion (UDP-Rhamnose, 15 hours): 17.384%
% Dul A bioconversion (UDP-Rhamnose, 48 hours): 27.427%
% Dul A bioconversion (UDP-Rhamnose, 96 hours): 32.608%
% Dul A bioconversion (UDP-Xylose, 0 hours): 0%
% Dul A bioconversion (UDP-Xylose, 15 hours): 79.34%
% Dul A bioconversion (UDP-Xylose, 48 hours): 79.919%
% Dul A bioconversion (UDP-Xylose, 96 hours): 79.349%
glucosylation and xylosylation plateauing after: 20 min

C=C1C[C@@]23CC[C@H]4[C@@](C)(CCC[C@@]4(C)C(=O)O[C@@H]4O[C@H](CO)[C@@H](O)[C@H](O)[C@H]4O)[C@@H]2CC[C@]1(O[C@@H]1O[C@H](CO)[C@@H](O)[C@H](O[C@@H]2O[C@H](CO)[C@@H](O)[C@H](O)[C@H]2O)[C@H]1O)C3 [Reb G, rebaudioside G]
Rhamnosylation using UDP-rhamnose compared with glucosylation and xylosylation: significantly lower
% Reb G bioconversion (UDP-Glucose, 0 hours): 0%
% Reb G bioconversion (UDP-Glucose, 15 hours): 87.748%
% Reb G bioconversion (UDP-Glucose, 48 hours): 85.225%
% Reb G bioconversion (UDP-Glucose, 96 hours): 83.427%
% Reb G bioconversion (UDP-Rhamnose, 0 hours): 0%
% Reb G bioconversion (UDP-Rhamnose, 15 hours): 17.055%
% Reb G bioconversion (UDP-Rhamnose, 48 hours): 26.923%
% Reb G bioconversion (UDP-Rhamnose, 96 hours): 31.347%
% Reb G bioconversion (UDP-Xylose, 0 hours): 0%
% Reb G bioconversion (UDP-Xylose, 15 hours): 78.904%
% Reb G bioconversion (UDP-Xylose, 48 hours): 78.311%
% Reb G bioconversion (UDP-Xylose, 96 hours): 77.211%
glucosylation and xylosylation plateauing after: 20 min

rebaudioside F [Reb F]
Rhamnosylation using UDP-rhamnose compared with glucosylation and xylosylation: significantly lower
% Reb F bioconversion (UDP-Glucose, 0 hours): 0%
% Reb F bioconversion (UDP-Glucose, 15 hours): 85.9%
% Reb F bioconversion (UDP-Glucose, 48 hours): 85.96%
% Reb F bioconversion (UDP-Glucose, 96 hours): 84.4%
% Reb F bioconversion (UDP-Rhamnose, 0 hours): 0%
% Reb F bioconversion (UDP-Rhamnose, 15 hours): 17.5%
% Reb F bioconversion (UDP-Rhamnose, 48 hours): 28.412%
% Reb F bioconversion (UDP-Rhamnose, 96 hours): 33.216%
% Reb F bioconversion (UDP-Xylose, 0 hours): 0%
% Reb F bioconversion (UDP-Xylose, 15 hours): 86.406%
% Reb F bioconversion (UDP-Xylose, 48 hours): 86.2%
% Reb F bioconversion (UDP-Xylose, 96 hours): 84.179%
glucosylation and xylosylation plateauing after: 20 min
